Tests used:
[1] = Genotoxicity in vitro or in vivo
mice [2] = assay: Kainate-induced temporal lobe seizures in mice; assay type: in vivo, mouse
Protocol: Unilateral injection of kainic acid (1 nmol in […]) into the dorsal hippocampus in mice induces a non-convulsive status that results in spontaneous recurrent focal seizures after 2-3 weeks. Seizures (5 to 20 times per hour in quiet mice) are characterized by a behavioral arrest and/or stereotypies, concomitant with spike and poly-spike discharges recorded in the injected hippocampus. All AEDs tested in this model (valproate, carbamazepine, phenytoin, levetiracetam) are without significant effects, except benzodiazepines which transiently suppress seizures. This model reproduces the behavioral, EEG, pharmacological and histological characteristics of mesial temporal lobe epilepsy, a form of epilepsy which is often drug-resistant in humans. After a recovery period, implanted mice (for EEG recording) were injected with kainic acid. They were EEG recorded at least 3 weeks after injection for selection of animals with consistent hippocampal seizure. Then, after a 20 min reference recording period, selected mice received either 1-[3-[3-(4-chlorophenyl)propoxy]propyl]piperidine monohydrochloride (10 or 20 mg/kg, i.p.) or saline and the recording was continued for 60 min. Treatments were given in a counter balanced order (after a one week washout period between two sessions).

rat H3R = target: T1, rat H3R (Rattus norvegicus, UniProt Q9QYN8); assay: A23187-evoked [3H]arachidonic acid release from CHO cells expressing rat H3R; assay type: cell-based; conditions: 1 μM, rat H3R 300-400 fmol/mg protein
T1 construct: expressed in transfected cells; host or cells: CHO cells
T1 sequence (Q9QYN8 whole entry): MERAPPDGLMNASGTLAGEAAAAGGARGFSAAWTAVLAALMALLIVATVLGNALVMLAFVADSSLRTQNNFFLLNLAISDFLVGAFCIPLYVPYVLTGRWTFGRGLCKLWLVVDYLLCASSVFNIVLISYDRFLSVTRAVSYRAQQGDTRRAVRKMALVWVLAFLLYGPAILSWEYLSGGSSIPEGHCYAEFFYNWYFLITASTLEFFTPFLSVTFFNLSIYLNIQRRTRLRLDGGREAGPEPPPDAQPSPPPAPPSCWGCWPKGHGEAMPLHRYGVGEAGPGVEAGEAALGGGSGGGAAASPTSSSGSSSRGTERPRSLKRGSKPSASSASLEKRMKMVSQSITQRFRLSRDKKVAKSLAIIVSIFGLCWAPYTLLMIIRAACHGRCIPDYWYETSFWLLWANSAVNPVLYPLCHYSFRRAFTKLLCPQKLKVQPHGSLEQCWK

human H3R = human H3R (Homo sapiens, UniProt Q9Y5N1); assay: Histamine H3 receptor binding, recombinant human H3R expressed in rat glioma C6 cells; set-up: expressed in transfected cells; host or cells: various mammalian cells (the earlier reading names rat glioma C6)
Sequence of human H3R (Q9Y5N1 whole entry): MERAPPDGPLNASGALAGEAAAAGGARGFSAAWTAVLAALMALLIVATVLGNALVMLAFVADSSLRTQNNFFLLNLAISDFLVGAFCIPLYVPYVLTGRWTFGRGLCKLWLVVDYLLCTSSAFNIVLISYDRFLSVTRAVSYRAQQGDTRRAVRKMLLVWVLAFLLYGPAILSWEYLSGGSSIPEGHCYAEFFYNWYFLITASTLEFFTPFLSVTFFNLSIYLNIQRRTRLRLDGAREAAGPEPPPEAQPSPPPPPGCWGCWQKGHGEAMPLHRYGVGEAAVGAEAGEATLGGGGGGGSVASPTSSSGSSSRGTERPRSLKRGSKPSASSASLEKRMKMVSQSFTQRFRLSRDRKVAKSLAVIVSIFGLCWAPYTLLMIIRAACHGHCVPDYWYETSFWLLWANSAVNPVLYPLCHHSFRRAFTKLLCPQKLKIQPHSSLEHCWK

cats = assay: Sleep-wake cycle study in cats (EEG/EMG); assay type: in vivo, cat
Protocol: Animals were chronically implanted with cortical and muscle electrodes to record EEG and EMG respectively, to allow monitoring their sleep-wake cycle. After recovery from surgery, animals were housed individually in a sound-proof recorded room maintaining at appropriate ambient temperature on a 12 h light/dark cycle. Polygraphic recordings were performed during 4 days to collect reference qualitative and quantitative data of sleep-wake control in each individual. Then, pharmacological evaluation was performed over 24 h sessions and analyzed by successive 30 sec epochs. Wakefulness and sleep states were identified as previously described for cats [Petitjean et al., Brain Res., 1975, 88: 439-53] and mice [[…] and Bugat, Brain Res., 1974, 69: 315-30]. Polygraphic recordings were started 7 days after surgery. Sleep-wake recording criteria included wakefulness (W), light slow wave sleep (SWS1), deep […]2) and paradoxical sleep (PS). Spectral analysis of EEG was performed by Fast-Fourier Transform in the frequency bands 0.8-2.5 Hz ([delta] slow waves), 8-15 Hz (spindles) and 20-45 Hz ([beta] and [gamma] rapid waves).

Human H1R = Human H1R (Homo sapiens, UniProt P35367); assay: Specific [3H]mepyramine binding at recombinant human H1 receptors expressed in HEK293 cells; conditions: read-out: Ki or IC50, Human H1R
Sequence of Human H1R (P35367 whole entry): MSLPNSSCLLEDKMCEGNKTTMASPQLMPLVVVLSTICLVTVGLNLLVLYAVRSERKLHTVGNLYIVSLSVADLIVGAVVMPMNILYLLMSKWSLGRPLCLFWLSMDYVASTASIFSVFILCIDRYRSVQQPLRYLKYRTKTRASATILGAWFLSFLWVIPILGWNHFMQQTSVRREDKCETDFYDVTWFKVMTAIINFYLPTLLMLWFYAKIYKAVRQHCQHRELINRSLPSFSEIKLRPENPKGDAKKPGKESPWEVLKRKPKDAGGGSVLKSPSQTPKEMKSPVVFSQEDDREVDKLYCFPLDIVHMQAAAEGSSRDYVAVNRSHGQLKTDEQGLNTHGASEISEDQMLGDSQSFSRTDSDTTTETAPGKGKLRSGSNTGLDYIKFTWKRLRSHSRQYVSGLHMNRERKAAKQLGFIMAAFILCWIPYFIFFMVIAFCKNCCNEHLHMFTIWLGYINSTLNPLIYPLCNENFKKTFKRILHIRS

mice [3] = assay: Scopolamine-induced learning deficit, two-trial object recognition; assay type: in vivo, mouse; conditions: i.p., scopolamine 0.3 mg/kg i.p.
Protocol: Lett., 1994, 170, 117-120; Bartolini et al., Biochem. Nehav., 1996, 53, 277-283]. Methods: Mice were allowed to explore a box for 30 min in the presence of two objects. The day after, mice were submitted to two trials spaced by an interval of 60 min. During the first trial (T1), mice were placed in the box containing the two identical objects and the time required by each animal to complete 20 sec of object exploration was determined. Exploration was considered to be directing the nose at a distance closer than 2 cm to the object and/or touching the object. For the second trial (T2), one of the objects presented in the first trial was replaced by and unknown novel object. Mice were placed in the box for 5 min and exploration of each object together with motor activity was determined. The following parameters were measured.

mice [4] = assay: Acute toxicity in mouse; assay type: in vivo; conditions: for no-effect dose: mouse, in vivo
rats = assay: Acute toxicity in rat; assay type: in vivo; conditions: for no-effect dose: in vivo
mice [5] = assay: Natural forgetting, two-trial object recognition; assay type: in vivo, mouse
Protocol: Methods: Mice were submitted to the first trial (T1), placed in the box containing two identical objects and the time required by each animal to complete 8 sec of object exploration was determined. Exploration was considered to be directing the nose at a distance closer than 2 cm to the object and/or touching the object. Immediately after the first trial mice were treated with the vehicle or tacrine (0.25 mg/kg, i.p.). […] Mice were placed in the box for 5 min and exploration of each object together with motor activity was determined. The following parameters were measured: […]

volunteers = assay: Phase I study of subjective satiety, interaction with olanzapine; assay type: in vivo, human
Protocol: A single-center, open-label, placebo-controlled phase I study was performed to evaluate the subjective satiety in 6 volunteers. The volunteers enrolled in the study underwent five single day administration periods.

**Q.** For `Cl.Clc1ccc(CCCOCCCN2CCCCC2)cc1` [1-[3-[3-(4-chlorophenyl)propoxy]propyl]-piperidine monohydrochloride], which genotoxicity [1] is on record?
**A.** not to be genotoxic in vitro or in vivo

**Q.** And the “cumulated duration and number of hippocampal discharges” value (mice [2]; 10 mg/kg, i.p., first 40 min after administration)?
**A.** reduced

**Q.** What about the “cumulated duration of hippocampal discharges” value (mice [2]; 20 mg/kg i.p., at 60 min) of the same compound?
**A.** also reduced

**Q.** What about the “decrease of the A23187-evoked [3H]AA release” value (rat H3R) of the same compound?
**A.** 40%

**Q.** And the “difference between the affinity at H3R and at other histamine receptors” value (human H3R)?
**A.** three orders of magnitude

**Q.** And the “potency at the human H3R as compared to the mouse H3R” value (human H3R; same test system)?
**A.** about 6 times

**Q.** What about the “time animals almost permanently wakeful” value (cats; 10 mg/kg oral) of the same compound?
**A.** 6 to 12 h

**Q.** What about the “increase in W duration” value (cats; 10 mg/kg oral, 6 h recording period) of the same compound?
**A.** 79%

**Q.** What about the “animal behavior after treatment” value (cats; oral) of the same compound?
**A.** No major change in the animal behavior

**Q.** What about the “awakening (W) at the expense of SWS and PS” value (cats; oral, 5 or 10 mg/kg) of the same compound?
**A.** dose-dependent increase in awakening

**Q.** And the Ki (Human H1R)?
**A.** 1140 nM

**Q.** And the “reversal of scopolamine-induced amnesia” value (mice [3]; 5 mg/kg)?
**A.** a reversal trend appeared without being significant

**Q.** What about the “reversal of scopolamine-induced amnesia” value (mice [3]; 15 mg/kg) of the same compound?
**A.** significantly (p=0.0056) reversed

**Q.** And the “maximum non lethal dose” value (mice [4]; mice)?
**A.** 100 mg/kg

**Q.** And the minimum lethal dose (mice [4]; mice, i.v.)?
**A.** 10 mg/kg

**Q.** What about the minimum lethal dose (mice [4]; mice, p.o.) of the same compound?
**A.** 150 mg/kg

**Q.** And the no-effect dose (mice [4]; iv)?
**A.** > 5 mg/kg

**Q.** What about the no-effect dose (mice [4]; po) of the same compound?
**A.** > 30 mg/kg

**Q.** What about the no-effect dose (rats; iv) of the same compound?
**A.** 12 mg/kg

**Q.** And the no-effect dose (rats; po)?
**A.** > 50 mg/kg

**Q.** And the “maximum non lethal oral dose” value (rats; oral)?
**A.** 100 mg/kg

**Q.** What about the “natural forgetting, association with tacrine” value (mice [5]; 15 mg/kg i.p. together with tacrine 0.25 mg/kg i.p.) of the same compound?
**A.** without change in the tacrine effect

**Q.** What about the natural forgetting (mice [5]; 15 mg/kg, i.p., 30 min before T1) of the same compound?
**A.** significantly reduced

**Q.** What about the “subjective satiety versus placebo” value (volunteers; 60 mg) of the same compound?
**A.** significantly increased

**Q.** What about the “subjective satiety, association with olanzapine” value (volunteers; 60 mg + olanzapine 5 mg) of the same compound?
**A.** able to counteract the effect of olanzapine leading to subjective satiety superimposable to placebo

Source: patent US8354430B2, “Monohydrochloride salt of 1-[3-[3-(4-chlorophenyl) propoxy]propyl]-piperidine” (priority 2005, dated 2013)
